Converted amounts (≈) assume the structure as drawn. Read-outs that look alike come from different tables or passages of the source.
Tests used:
[1] = system: S. haematobium; design: method as in PMID 28126024; conditions: 40 mg/kg; cited from earlier work
[2] = system: S. mansoni juvenile worms; conditions: cited from earlier work
[3] = system: S. mansoni; design: method as in PMID 28126024; conditions: 40 mg/kg; cited from earlier work
[4] = system: S. japonicum; design: method as in PMID 28126024; conditions: 40 mg/kg; cited from earlier work
[5] = Plasma protein binding in human plasma at 10 uM, equilibrium dialysis; assay type: in vitro ADME
Method: (§1) Each experiment was performed in duplicate for the compound being tested. A working solution of compound was prepared from 10 μL of 10 mM solution in DMSO + 190 μL 40:60 MeCN:Water. A Total solution was prepared from 12 μL of working solution + 588 μL plasma (compound conc: 10 μM, DMSO: 0.1%, ACN:0.76%). In an equilibrium dialysis chamber, Total solution (200 μL) was added to the plasma chamber and PBS pH 7.4 (350 μL) was added to the buffer chamber. The chamber was then incubated at 37°C for 6 h with constant shaking at 400 rpm (Thermomixer comfort, Eppendorf). Aliquots were removed from both plasma and buffer chambers and the following test samples prepared: Blank: blank Plasma (20 μL) + blank buffer (60 μL), Buffer: blank plasma (20 μL) + test buffer (60 μL), Plasma: test plasma (20 μL) + blank buffer (60 μL), Total: total sample (20 μL) + blank buffer (60 μL). Ice-cold acetonitrile (160 μL), containing a suitable standard was added to all samples, they were shaken vigorously and centrifuged at 4,000 rpm for 20 min at 15°C. Supernatant (110 μL) from each sample was diluted with water (110 μL) and the sample analysed by LC-MS/MS.
(§2) % Free = 100 × (AREA in buffer × dilution factor)/(AREA in Plasma × dilution factor)
(§3) % Recovery = 100 ×[(Avg AREA in buffer × dilution factor) + (Avg AREA in Plasma × dilution factor)] / (Avg AREA in Total × dilution factor)

[6] = system: Adult S. mansoni; test: In vitro adult S. mansoni worm assay; assay type: cell-based; conditions: Schistosoma mansoni, 120 h incubation
Source text: (§4) The Puerto Rican strain of S. mansoni was maintained in Biomphalaria glabrata and CD1 mice. Oncomelania hupensis (hupensis) infected with S. japonicum (Chinese strain) and Bulinus truncatus (truncatus) infected with Egyptian strain S. haematobium were obtained from BEI Resources, NIAID, NIH. Infection of mice for worm recovery was as previously described except that, whereas cercariae of S. mansoni and S. haematobium were obtained by shedding from infected snails under lights, cercariae of S. japonicum were obtained by gently crushing the snails. Furthermore, adult S. haematobium were recovered after 12 weeks following mouse infection.
(§5) In vitro efficacy was carried out as previously described. In brief, worms were recovered from infected mice by portal perfusion 3 weeks (for juveniles) or 6 weeks (for adults) post-infection using warm perfusion medium (Dulbecco’s Modified Eagle’s Medium [DMEM], 2mM L-glutamine, 100 Units/ml penicillin, 100μg/ml streptomycin, 20mM Hepes, 10 Units/ml heparin [Sigma, UK]). Worms were washed free of red blood cells using the perfusion medium, and finally suspended in complete medium (cDMEM: DMEM, 2mM L-glutamine, 100 Units/ml penicillin, 100μg/ml streptomycin, 10% FCS). The juvenile assays were carried out in 96-well plates, each well containing 6–8 worms in 200 μL cDMEM. The adult worm assay was in 24-well plates, each well containing 3 worm pairs in 1mL cDMEM. Both the juvenile and adult worm cultures were kept at 37° C, in an atmosphere of 5% CO2. Drug effects were determined on day 5 following drug treatment by assessing the viability of individual worms as described in [14].

[7] = system: HepG2 cells; test: Cytotoxicity, HepG2 cells with MTT; assay type: cell-based, human; conditions: Table 2; hepG2 cell line, 72 h incubation
Method: Activity against mammalian cells was determined using either of two standard assays. The first of these used MRC-5 cells with Alamar blue staining as previously described. The second used HepG2 cells monitored using 3-(4,5-dimethylthiazol-2-yl)-2,5-diphenyltetrazolium bromide (MTT) as previously described.

[8] = Mouse pharmacokinetics; assay type: in vivo; conditions: for Clobs / AUC(0-inf) / Vd / half-life: 0.5 mg/kg iv, in a mixture of 5 compounds; for AUC(0-inf) / Vd / bioavailability / half-life: male, Swiss albino, plasma; for Vd: read-out: Vss; for bioavailability: 2.5 mg/kg oral, mixture of 5 compounds, calculated values > 100% shown as 100; for half-life: iv, 0.5 mg/kg, sampled over 24 h;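 for all read-outs here: three mice per experiment, dosed in 10% DMSO with 50 mM Na2HPO4 buffer plus Tween-80, plasma levels quantified by LC-MS against a calibration line prepared in blank matrix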
[9] = Metabolic stability in mouse hepatocytes; assay type: in vitro ADME; conditions: hepatocytes (suspension), pH 7.4, 90 min incubation, read-out: Mouse hepatocyte % remaining at 90 min
Method: (§6) 100 μM compound stock solution was prepared from 5 μL of 4 mM stock in DMSO + 195 μL MeCN. Working solution (2 μM compound) was prepared using 10 μL of 100 μM stock + 490 μL buffer pH 7.4 (KHB supplemented with CaCl2, NaHCO3, HEPES, fructose, glycine; pH 7.4).
(§7) Working solution (25 μL, 2 μM) was added in duplicate to wells in a 0.5 mL per well, 96 well plate which was preincubated to reach 37°C. Hepatocyte suspension (25 μL) was added to each plate, and the plate incubated (37°C, 95% relative humidity with 5% CO2 supply) under gentle mixing (Thermomixer @300 rpm). After designated time periods, ice-cold MeCN (250 μL) was added with a suitable standard. For T = 0 min, ice-cold MeCN (250 μL) with suitable standard was added to the working solution (2 μM) and hepatocyte suspension (25 μL) added. The plates for each time point were shaken, sonicated for 5 mins and kept at 4°C until the final plate was processed. The plates were centrifuged at 4,000 rpm for 20 min, supernatant (110 μL) was mixed with water (110 μL) and the samples analysed using LC-MS/MS.

[10] = Kinetic solubility; assay type: physicochemical
Source text: Table 4 in vitro, physicochemical and in vivo properties of compounds pictured in Fig 10. | column: Measured physicochemical properties / Kinetic solubility, pH 7.4 (uM); Measured physicochemical properties / Kinetic solubility, FaSSIF (uM); Measured physicochemical properties / Kinetic solubility, FeSSIF (uM)

[11] = Plasma protein binding in mouse plasma at 10 uM, equilibrium dialysis; assay type: in vitro ADME
Method: as §1, §2, §3

[12] = Metabolic stability in human hepatocytes; assay type: in vitro ADME; conditions: hepatocytes (suspension), pH 7.4, 90 min incubation, read-out: Human hepatocyte % remaining at 90 min
Method: as §6, §7

[13] = system: Juvenile S. mansoni; test: In vitro juvenile (3 week old) S. mansoni worm assay; assay type: cell-based; conditions: Schistosoma mansoni; Table 2; in vitro, 120 h incubation
Source text: as §4, §5

[14] = system: S. mansoni infections; design: method as in PMID 29126136; conditions: cited from earlier work
[15] = system: S. mansoni juvenile worms; test: In vivo efficacy, mouse model of juvenile (21-day old) S. mansoni infection; conditions: mouse, Juvenile infection, oral 50 mg/kg, formulation corn oil
Method: (§8) Prior to in vivo efficacy experiments, a single animal was given a dose of drug (using the same formulation) that was twice as large as that planned for use in the efficacy experiments and was observed periodically for adverse clinical signs for 24h by trained veterinarians. Adverse clinical signs checked include postural defect, vocalization, oculo-nasal discharge, hypersalivation, change in activity, abnormal gait, respiration and pulse, piloerection, loss of pupillary reflex, eyelid reflex, chromodacryorrhea, reaction to handling, tremor, convulsions, prostration, diarrhoea, cachexia, emaciation. […] In vivo efficacy was assessed in female CD1 mice using methods based on those previously described. Mice were infected subcutaneously with 150 cercariae. Test compounds were suspended in 7% Tween-80 / 3% Ethanol / double distilled water and drug dispersal was facilitated by vortexing and using a sonicating water bath (Formulation “Aqueous”). Alternatively, drugs were first dissolved in DMSO, then diluted with corn oil to give a 1:19 DMSO:corn oil solution/suspension of test compound (Formulation “Corn oil”). Dosing was by oral gavage. Mice in the negative control groups were given the drug suspension vehicle only. Positive controls for treatment of adult, day 42 old, infections were treated with PZQ and those for juvenile, day 21 old, infections with artemether, which unlike PZQ is effective against the juvenile worm infections in mice. During and following treatment, mice were closely observed for any ill effects by staff experienced in animal handling. This involved individuals who were blinded to the treatment groups. Effects they were trained to look for included hunching, immobility, piloerection, subdued behaviour, diarrhoea and loss of body condition. None were seen. Worms were recovered by portal perfusion with citrate saline 8–14 days post treatment and counted. Differences between groups relative to the non-drug treated controls were assessed for statistical significance by Student’s unpaired t-test using GraphPad Prism Software. P values are presented as follows:- ns–P > 0.05 (not significant), * P ≤ 0.05, ** P ≤ 0.01, *** P ≤ 0.001, **** P ≤ 0.0001.
(§9) For pharmacokinetic analysis during the in vivo efficacy experiments individual animals were only sampled once. Samples were taken from one animal in each experimental group at each of 1, 4, 8 h and samples from two animals in each group were taken at 24 h.

[16] = as above; conditions: female, CD1, plasma; mouse, Juvenile infection, oral 50 mg/kg, formulation corn oil; read-out: Plasma conc @24 h (efficacy experiment)
Method: as §8, §9

[17] = system: S. japonicum adult; test: In vitro adult S. japonicum worm assay; assay type: cell-based
Source text: as §4, §5

[18] = Table 2, in vitro, read-out: Adult S. mansoni EC50

Structure (SMILES) | EC50 [6, 18] [nM] | Clobs [8] [mL/min/kg] | AUC(0-inf) [8] [ng·h/mL] | Vd [8] [L/kg] | bioavailability [8] [%] | half-life [8] [h] | remaining at 1.5 h, 1 µM [9] [%] | remaining at 1.5 h, 1 µM [12] [%] | EC50 [13] [nM] | Cytotox TC50 [7] | also measured
O=C(C1CCCCC1)N1CC(=O)N2CCc3ccccc3C2C1 (stereo not drawn) [PZQ, Praziquantel] |  |  |  |  |  |  |  |  |  |  | cure rate in children [1]: 73.6%; activity against the juvenile stages ([2]; both in vivo and in vitro): relatively ineffective; cure rate in children [3]: 76.4%; cure rate in children [4]: 95.3%
CC(C)c1nn2cnc(-c3ccc(F)c(C(F)(F)F)c3)cc2c1-c1ccc2[nH]ncc2c1F [LSHTM-3644] | 40 | 6.33 | 1330 | 2.4 | 76 | 6.3 |  |  | 60 |  | 
CC(C)NCC1CCc2cc(CO)c([N+](=O)[O-])cc2N1 (stereo not drawn) [oxamniquine] |  |  |  |  |  |  |  |  |  |  | efficacy against S. mansoni infections [14]: effective
CO[C@H]1O[C@@H]2O[C@@]3(C)CC[C@H]4[C@H](C)CC[C@@H]([C@H]1C)[C@@]24OO3 [artemether] |  |  |  |  |  |  |  |  |  |  | efficacy against the juvenile worm infections in mice ([2]; mice): effective

Second part, led by results:

EC50 [6, 18] [nM] | Clobs [8] [mL/min/kg] | AUC(0-inf) [8] [ng·h/mL] | Vd [8] [L/kg] | bioavailability [8] [%] | half-life [8] [h] | remaining at 1.5 h, 1 µM [9] [%] | remaining at 1.5 h, 1 µM [12] [%] | EC50 [13] [nM] | Structure (SMILES) | Cytotox TC50 [7] | also measured
9 | 24.5 | 300 | 5 | 100 | 4.6 | 31 | 79 | 11.1 | CC(C)Oc1cc(-c2cn3c(-c4ccc5[nH]ncc5c4F)c(C(F)(F)F)nc3cn2)ccc1F [LSHTM-3690] | 9,250 nM | Human plasma protein %binding [5]: 99.925%; recovery at 6 h, 10 µM ([5]; human, human plasma, pH 7.4): 89%; solubility kinetic at 24 h ([10]; FaSSIF, pH 6.5, read-out: Kinetic solubility, FaSSIF): 188 µM (≈ 89 µg/mL); solubility kinetic at 24 h ([10]; FeSSIF, pH 5, read-out: Kinetic solubility, FeSSIF): 196 µM (≈ 92.8 µg/mL); Mouse plasma protein %binding [11]: 99.8775%; recovery at 6 h, 10 µM ([11]; mouse, mouse plasma, pH 7.4): 93.9%
2.3 | 31.3 | 300 | 5.6 | 57.1 | 4.5 | 78 | 45 | 2.7 | CC(C)c1cc(-c2cn3c(-c4ccc5[nH]ncc5c4F)c(C(F)(F)F)nc3cn2)ccc1F [LSHTM-3661] | 17,000 nM | EC50 ([6]; Table 3, S. mansoni, read-out: Sm adult EC50): 2.3 nM; Worms remaining [15]: 0%; concentration at 24 h [16]: 178 ng/mL; solubility kinetic at 24 h ([10]; pH 7.4, read-out: Kinetic solubility, pH 7.4): 0.04 µM (≈ 0.0183 µg/mL); EC50 ([17]; Schistosoma japonicum, S. japonicum, 120 h incubation, read-out: Sj adult EC50): 24.8 nM; Potency ratio Sj/Sm ([17]; adult EC50 S. japonicum / S. mansoni): 10.9
